This note sets out measurements from US12378224B2 (Dong-A Socio Holdings Co., Ltd., priority 2016, dated 2025).

pIC50: −log10 of the molar value.

In assay [1] the target is human c-MER catalytic domain (Homo sapiens (Human), UniProt Q12866). In words: TR-FRET Kinase Activity Biochemical Assay (LanthaScreen). Conditions: 10 uM ATP, 1 hour, kinase not given. A digest of the protocol: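 Activity was quantified as the ratio of 495 nm to 520 nm emission (excitation 340 nm) in a LanthaScreen TR-FRET format. The enzyme was the human c-MER catalytic domain, and the substrate was fluorescein-poly-GT. Detection used 2 nM Tb anti-phosphotyrosine antibody for 30 min after termination with 10 mM EDTA.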
Sequence of human c-MER catalytic domain (Q12866 587-858): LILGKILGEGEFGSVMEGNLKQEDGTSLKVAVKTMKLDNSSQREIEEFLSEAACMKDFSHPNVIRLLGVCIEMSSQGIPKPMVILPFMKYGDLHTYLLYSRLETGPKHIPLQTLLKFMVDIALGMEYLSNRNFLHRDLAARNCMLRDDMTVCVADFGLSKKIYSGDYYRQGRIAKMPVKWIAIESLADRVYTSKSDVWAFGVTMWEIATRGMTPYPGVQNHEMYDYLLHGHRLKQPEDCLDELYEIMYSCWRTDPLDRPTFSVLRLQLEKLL
(In general: In TR-FRET formats the signal depends on donor and acceptor labels being close together.)

Assay [2] deals with CD8-MerTK (Ba/F3-CDM cells) (Homo sapiens, UniProt Q12866). The assay can be described thus: In Cell MER Kinase Assay Using BaF3 Cellular System. The format is cell-based. As to conditions: Ba/F3-CDM proliferation without IL-3, 48 hours, Celltiter-Glo. An excerpt:
CD8-MerTK is a chimeric fusion protein consisting of the extracellular and transmembrane domains of the human CD8α (amino acids 1 to 209) at its N-terminus and the kinase domain and intracellular parts of MerTK (amino acids 521-994) at its C-terminus. To establish an in cell kinase assay for MerTK kinase, the IL-3 dependent Ba/F3 cells of murine lymphoid origin was transfected with CD8-MerTK. The resulting Ba/F3-CDM line was then validated that Ba/F3-CDM cell proliferation is completely dependent on the activity of MerTK kinase activity when growing in the absence of IL-3. For a routine cellular assay, Ba/F3-CDM cells were seeded at 2,000 cells per well in 384-well cell culture plate containing DMEM/10% FBS culture media and incubated for 24 hours before addition of compounds pre-diluted in culture media. Following compound treatment, cells were further incubated for 48 hours and the proliferation was measured. To discriminate a Ba/F3 growth inhibition by a specific inhibition of MerTK kinase following compound treatment vs growth inhibition due to a non-specific unintended cytotoxicity of compounds, we routinely carried out control sets of Ba/F3 cells in parallel that grown in IL3-supplemented growth media. In the presence of IL-3, the proliferation of Ba/F3 is no longer dependent on the MerTK activity. Cell growth and proliferation was measured with Celltiter-Glo™ system (Promega, USA) according to the manufacturer's instruction. The half-maximal growth inhibitory concentration (GI50) value was calculated with Prism6.0 software (GraphPad, USA).

Assay [3] concerns the target human MER (528-end) (Homo sapiens (Human), UniProt Q12866). In words: HTRF Kinase Activity Biochemical Assay (KinEASE-TK). Conditions: 10 uM ATP. A digest of the protocol: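 Activity read-out is the HTRF ratio (665 nm over 620 nm emission, ×10,000; excitation 340 nm) after 1 h detection with 0.375 nM Eu3+-cryptate anti-TK antibody plus 0.062 uM SA-XL665. Preceding kinase step: human MER (528-end), biotinylated TK substrate, 1 h, room temperature.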

Sequence of human MER (528-end) (Q12866 528-999 limits assumed): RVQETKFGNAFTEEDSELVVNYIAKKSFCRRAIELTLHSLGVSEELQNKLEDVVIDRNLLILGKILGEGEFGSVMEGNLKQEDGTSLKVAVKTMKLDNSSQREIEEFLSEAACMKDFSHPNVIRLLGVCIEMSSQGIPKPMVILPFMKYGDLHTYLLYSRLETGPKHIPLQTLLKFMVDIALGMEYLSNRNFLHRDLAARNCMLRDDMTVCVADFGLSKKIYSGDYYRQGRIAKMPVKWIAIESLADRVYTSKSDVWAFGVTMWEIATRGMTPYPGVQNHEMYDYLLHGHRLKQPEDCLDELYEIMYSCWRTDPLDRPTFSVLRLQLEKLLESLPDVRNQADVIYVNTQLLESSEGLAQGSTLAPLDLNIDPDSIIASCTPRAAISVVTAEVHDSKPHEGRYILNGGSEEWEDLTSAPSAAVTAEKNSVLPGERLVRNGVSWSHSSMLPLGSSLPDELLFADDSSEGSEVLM
Sequence of CD8-MerTK (Ba/F3-CDM cells) (Q12866 21-999 limits assumed, stated change not applied): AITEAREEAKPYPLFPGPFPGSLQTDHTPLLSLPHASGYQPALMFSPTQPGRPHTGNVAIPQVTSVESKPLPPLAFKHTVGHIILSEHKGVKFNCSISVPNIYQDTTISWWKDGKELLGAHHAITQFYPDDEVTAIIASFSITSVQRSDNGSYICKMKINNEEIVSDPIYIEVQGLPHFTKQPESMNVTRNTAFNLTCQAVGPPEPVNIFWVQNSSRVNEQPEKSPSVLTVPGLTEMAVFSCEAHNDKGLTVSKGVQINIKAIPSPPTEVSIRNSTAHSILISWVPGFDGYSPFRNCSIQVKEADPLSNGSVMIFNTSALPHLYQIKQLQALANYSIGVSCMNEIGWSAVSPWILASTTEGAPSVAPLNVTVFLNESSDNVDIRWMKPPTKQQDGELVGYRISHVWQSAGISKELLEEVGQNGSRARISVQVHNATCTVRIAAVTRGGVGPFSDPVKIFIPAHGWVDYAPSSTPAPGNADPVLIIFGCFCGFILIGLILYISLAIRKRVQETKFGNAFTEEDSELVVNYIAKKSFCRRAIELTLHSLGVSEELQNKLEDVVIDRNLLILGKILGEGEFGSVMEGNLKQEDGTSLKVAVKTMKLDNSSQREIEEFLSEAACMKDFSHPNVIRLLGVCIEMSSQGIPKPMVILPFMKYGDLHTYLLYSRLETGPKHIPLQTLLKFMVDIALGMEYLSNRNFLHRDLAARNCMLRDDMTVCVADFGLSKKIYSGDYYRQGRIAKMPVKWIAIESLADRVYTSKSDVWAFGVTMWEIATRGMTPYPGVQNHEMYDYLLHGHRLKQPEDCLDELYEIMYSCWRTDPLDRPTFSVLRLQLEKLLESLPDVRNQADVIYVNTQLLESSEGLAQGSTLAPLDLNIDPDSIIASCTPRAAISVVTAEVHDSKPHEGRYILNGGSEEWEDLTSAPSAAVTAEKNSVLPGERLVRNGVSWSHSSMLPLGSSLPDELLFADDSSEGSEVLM

As a reminder, the pIC50 is the negative decadic logarithm of the IC50, by convention in mol/L. High values mean a small IC50, low ones a large IC50. `Cn1cc(-c2cnc(N)c(C(=O)N[C@@H]3CCN(C(=O)Oc4ccc5cc(OCC6CCNCC6)ccc5c4)C3)c2)cn1` [Example 303]: the pIC50 in assay [1] is 7.00 to 8.00; in assay [2], 6.00 to 6.30.

Turning to `Cn1cc(-c2cnc(N)c(C(=O)N[C@@H]3CCN(C(=O)Oc4cccc(OCC5CCC(N)CC5)c4)C3)c2)cn1` (stereo partly drawn) [Example 305, 3-(((1R,4R)-4-aminocyclohexyl)methoxy)phenyl (R)-3-(2-amino-5-(1-methyl-1H-pyrazol-4-yl)nicotinamido)pyrrolidine-1-carboxylate], the pIC50 is 6.00 to 7.00 in assay [1] and less than 6.00 in assay [2].

Turning to `Cc1cc(-c2ccc(CN3CCN(C)CC3)cc2)ccc1C(=O)N1CC[C@@H](NC(=O)c2cc(-c3cnn(C)c3)cnc2N)C1` [Example 391, (R)-2-amino-5-(1-methyl-1H-pyrazol-4-yl)-N-(1-(3-methyl-4^1-((4-methylpiperazin-1-yl)methyl)-[1,1′-biphenyl]-4-carbonyl)pyrrolidin-3-yl)nicotinamide], the negative logarithm of the IC50 (pIC50) in assay [2] and in assay [3] was less than 6.00 in each case.

`Cc1cc(C(=O)N2CC[C@@H](NC(=O)c3cc(-c4cnn(C)c4)cnc3N)C2)ccc1-c1ccc(CN2CCN(C)CC2)cc1` [Example 392, (R)-2-amino-5-(1-methyl-1H-pyrazol-4-yl)-N-(1-(2-methyl-4^1-((4-methylpiperazin-1-yl)methyl)-[1,1′-biphenyl]-4-carbonyl)pyrrolidin-3-yl)nicotinamide]: the pIC50 in assay [2] was less than 6.00; in assay [3] it was 6.00 to 7.00.

Consider `Cn1cc(-c2cnc(N)c(C(=O)N[C@@H]3CCN(C(=O)c4ccc(-c5ccc(OCC6CCNCC6)cc5)cc4)C3)c2)cn1` [Example 550], for which the pIC50 was 7.00 to 8.00 in assay [1] and less than 6.00 in assay [2].

As for `Nc1ncc(-c2ccc(N3CCOCC3)nc2)cc1C(=O)N[C@@H]1CCN(C(=O)c2ccc(-c3ccccc3)cc2)C1` [Example 559], the pIC50 in assay [2] is 6.30 to 7.00; in assay [3], 7.00 to 8.00.

`Nc1cncc(-c2cnc(N)c(C(=O)N[C@@H]3CCN(C(=O)c4ccc(-c5ccc(F)cc5Cl)cc4)C3)c2)c1` [Example 583, (R)-5′,6-diamino-N-(1-(2′-chloro-4′-fluoro-[1,1′-biphenyl]-4-carbonyl)pyrrolidin-3-yl)-[3,3′-bipyridine]-1-5-carboxamide]: the pIC50 in assay [1] is more than 8.00; in assay [2], less than 6.00.

In the case of `Nc1ncc(-c2ccccc2C(=O)O)cc1C(=O)N[C@@H]1CCN(C(=O)c2ccc(-c3ccc(F)cc3Cl)cc2)C1` [Example 777, (R)-2-(6-amino-5-((1-(2′-chloro-4′-fluoro-[1,1′-biphenyl]-4-carbonyl)pyrrolidin-3-yl)carbarnoyl)pyridin-3-yl)benzoic acid], the negative logarithm of the IC50 (pIC50) in assay [2] and in assay [3] was less than 6.00 in each case.

“(R)-2-amino-N-(1 chlorophenyl)carbamoyl)pyrrolidin-3-yl)-5-(1-(1-methylpiperidin-4-yl)-1H-pyrazol-4-yl)nicotinamide [Example 11]”: the pIC50 in assay [1] was 7.00 to 8.00; in assay [2] it was less than 6.00.

Take “(R)-2-amino-N-(1-(2-chloro-[1,1′-biphenyl]-4-carbonyl)pyrrolidin-3-yl)-5-(1-methyl-1H-pyrazol-4-yl)nicotinamide [Example 394]”: the figures for the pIC50 in assay [2] and in assay [3] were less than 6.00 and 6.00 to 7.00, respectively.

Turning to “(R)-2-amino-N-(1-(2′-chloro-[1,1′-biphenyl]-4-carbonyl)pyrrolidin-3-yl)-5-(4-(4-methylpiperazin-1-yl)phenyl)nicotinamide [Example 570]”, the negative logarithm of the IC50 (pIC50) in assay [1] is more than 8.00; in assay [2], 6.30 to 7.00.

Turning to “(R)-2-amino-N-(1-((4′-(dimethylamino)-[1,1′-biphenyl]-3-yl)carbamoyl)pyrrolidin-3-yl)-5-(1-methyl-1H-pyrazol-4-yl)nicotinamide [Example 263]”, the results for the negative-log IC50 (pIC50) in assay [1] and in assay [2] were 7.00 to 8.00 and less than 6.00, respectively.
